# In patent US10160812B2, “Bispecific HER2 antibodies” (MedImmune, LLC, priority 2014, dated 2018):
# Tests used:
# SKBR-3 = assay: In vitro cytotoxic activity (Cell Titer Glo); assay type: cell-based, human; conditions: SKBR-3, 3 to 4 days; read-out: In vitro potency (EC50 in pM)
# Protocol: A panel of human cancer cell lines expressing various levels of HER2 was used to evaluate the cytotoxic activity of bispecific ADC (Table 5 in Example 1). Briefly, cells were harvested, resuspended, and plated in serum-containing culture media at a density of 5,000 to 20,000 per well (depending on the growth kinetics of each cell line) of 96-well plates in a volume of 100 μL. A 2× concentration of each dose of antibody or ADC to be tested was prepared by diluting the test articles in culture medium. One hundred microliters of each test article was added to cells in triplicate such that the final dose curve ranged from 5 nM down to 0.08 pM in a stepwise 1:4 serial dilution series. The treated cells were incubated at 37° C./5% CO2 for 3 to 4 days, depending on the growth kinetics of each particular cell line. Cell viability was determined using Cell Titer Glo according to manufacturer's instructions. Data are analyzed by the GraphPad Prism software and presented as percent growth inhibition relative to the untreated control. EC50 values were determined using Sigmoidal non-linear regression analysis with GraphPad Prism software and were summarized in Table 6.
# MCF7-GTU = assay: In vitro cytotoxic activity (Cell Titer Glo); assay type: cell-based, human; conditions: 3 to 4 days
# Protocol: (§5) Briefly, cells were harvested, resuspended, and plated in serum-containing culture media at a density of 5,000 to 20,000 per well (depending on the growth kinetics of each cell line) of 96-well plates in a volume of 100 μL. A 2× concentration of each dose of antibody or ADC to be tested was prepared by diluting the test articles in culture medium. One hundred microliters of each test article was added to cells in triplicate such that the final dose curve ranged from 5 nM down to 0.08 pM in a stepwise 1:4 serial dilution series. The treated cells were incubated at 37° C./5% CO2 for 3 to 4 days, depending on the growth kinetics of each particular cell line. Cell viability was determined using Cell Titer Glo according to manufacturer's instructions. Data are analyzed by the GraphPad Prism software and presented as percent growth inhibition relative to the untreated control.
# ZR-75-1 = assay: In vitro cytotoxic activity (Cell Titer Glo); assay type: cell-based, human; conditions: ZR-75-1, 3 to 4 days
# Protocol: as §5
# MCF-7 = assay: In vitro cytotoxic activity (Cell Titer Glo); assay type: cell-based, human; conditions: MCF-7, 3 to 4 days
# Protocol: as §5
# MDA-MB-361 model = assay: CBX xenograft tumor model; assay type: in vivo, Athymic nude mice; conditions: MDA-MB-361 CBX, 3 mg/kg
# Protocol: (§1) All mouse experiments were carried out in compliance with the guidelines published by the Association for Assessment and Accreditation of Laboratory Animal Care (AAALAC) and protocols approved by the MedImmune Institutional Animal Care and Use Committee. Athymic nude mice between 4-8 weeks of age were used in the studies. In subcutaneous CBX models, animals were injected unilaterally on the right flank with tumor cells harvested from culture at a specific passage lot. In orthotopic CBX models, xenografts were established by injecting 5×10^6 cells per mouse (suspended in 50% matrigel) into the mammary fat pad on the right flank of animals. In PDX models, animals are implanted unilaterally on the flank with tumor fragments harvested from host animals each implanted from a specific passage lot. Pre-study tumor volumes were recorded for each experiment beginning approximately one week prior to its estimated start date. When tumors reach the appropriate tumor volume initiation (TVI) range (typically 150-250 mm^3), animals are randomized into treatment and control groups and dosing initiated. […] Animals were observed daily and tumor dimensions and body weights were measured and recorded twice weekly. Tumor volumes are calculated using the following formula: tumor volume=π÷6 (length×width^2). […]
# ST225 model = assay: PDX tumor model (HER2-3+ breast cancer); assay type: in vivo, Athymic nude mice; conditions: Bs2-4T at 3 mg/kg
# Protocol: as §1
# cynomolgus monkey Her2 = assay: Capture ELISA binding specificity / species cross-reactivity; conditions: recombinant extracellular domain protein
# Text: (§2) To determine whether 39S retains the binding specificity and species cross-reactivity of its parental antibody AZ1.39.1, binding of 39S to the receptors of human ErbB family (EGFR, HER2, HER3, and HER4), the mouse Her2, and the cynomolgus monkey Her2 was examined by capture ELISA. Briefly, 96-well plates were coated with one of the following recombinant extracellular domain proteins: human EGFR, human HER2, human HER3, human HER4, mouse Her2, or cynomolgus monkey Her2. Antibody to be tested was prepared by diluting in a stepwise 1:3 serial dilution ranging from 50 nM down to 0.28 pM and then added to the wells in duplicate. After one hour of incubation, plates were washed, and goat anti-human IgG Fab HRP-conjugated secondary antibody was added to each well and the plates were incubated for 1 hour. The plates were washed and TMB substrate was added and incubated for 5-20 min to allow color development. The stop solution was added to the wells at the end of reaction and the plates were read at 450 nm. Binding signal (absorbance at 450 nm) was plotted against antibody concentration using Prism software.
# (§3) Binding specificity and species cross-reactivity of bispecific antibodies to the recombinant extracellular domain protein of human EGFR, human HER2, human HER3, human HER4, mouse Her2, or cynomolgus monkey Her2 were determined by capture ELISA as described in Example 1.
# (§4) To determine whether the conjugation of tubulysin 1508 alters antigen binding specificity and species cross-reactivity, binding activity of bispecific ADC to the recombinant extracellular domain protein of human EGFR, human HER2, human HER3, human HER4, mouse Her2, and cynomolgus monkey Her2 were confirmed by capture ELISA as described in Example 1.
# human EGFR = target: T1, human EGFR (Homo sapiens, UniProt P00533); assay: as above; conditions: recombinant extracellular domain protein
# T1 construct: recombinant extracellular domain proteins: human EGFR, human HER2, human HER3, human HER4, mouse Her2, or cynomolgus monkey Her2
# Text: as §2, §3, §4
# human HER4 = target: T2, human HER4 (Homo sapiens, UniProt Q15303); assay: as above; conditions: recombinant extracellular domain protein
# T2 construct: recombinant extracellular domain proteins: human EGFR, human HER2, human HER3, human HER4, mouse Her2, or cynomolgus monkey Her2
# T2 sequence (Q15303 26-651 limits assumed): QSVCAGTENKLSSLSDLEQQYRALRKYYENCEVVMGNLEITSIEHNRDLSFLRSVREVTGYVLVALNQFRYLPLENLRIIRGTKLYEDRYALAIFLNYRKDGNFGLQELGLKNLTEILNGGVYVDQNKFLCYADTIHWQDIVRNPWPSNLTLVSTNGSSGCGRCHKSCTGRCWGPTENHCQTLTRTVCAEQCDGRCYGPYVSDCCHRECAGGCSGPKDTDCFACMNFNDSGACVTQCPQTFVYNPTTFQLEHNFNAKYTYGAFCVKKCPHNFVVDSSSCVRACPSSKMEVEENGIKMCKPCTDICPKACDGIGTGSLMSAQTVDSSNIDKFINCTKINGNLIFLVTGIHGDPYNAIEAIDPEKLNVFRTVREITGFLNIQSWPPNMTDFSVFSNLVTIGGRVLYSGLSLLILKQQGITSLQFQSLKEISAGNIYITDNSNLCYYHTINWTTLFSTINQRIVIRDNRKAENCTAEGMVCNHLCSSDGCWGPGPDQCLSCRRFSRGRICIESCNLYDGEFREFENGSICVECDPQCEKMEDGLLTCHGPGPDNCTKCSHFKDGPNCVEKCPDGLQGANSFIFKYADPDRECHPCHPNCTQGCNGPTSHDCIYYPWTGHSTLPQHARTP
# Text: as §2, §3, §4
# NCI-N87 cell = assay: Proliferation inhibition assay in serum-containing media; assay type: cell-based, human
# Protocol: Cell viability was determined using Cell Titer Glo from Promega according to manufacturer's instructions.
Molecule,EC50 (SKBR-3),In vitro potency (EC50 in pM) (MCF7-GTU),In vitro potency (EC50 in pM) (ZR-75-1),In vitro potency (EC50 in pM) (MCF-7),in vivo activity (tumor growth) (MDA-MB-361 model),in vivo activity (tumor growth) (ST225 model),binding by capture ELISA (cynomolgus monkey Her2),binding by capture ELISA (human EGFR),binding by capture ELISA (human HER4),inhibition of cell proliferation (NCI-N87 cell),inhibition of cell growth in combination (NCI-N87 cell; combined with trastuzumab or pertuzumab)
T-DM1 [reference compound],82.6 pM,Inactive,Inactive,Inactive,limited activity,tumor stasis,–,–,–,–,–
"39S: lead optimized monoclonal antibody derived from the 1.39.1 antibody; VH SEQ ID NO:15, VL SEQ ID NO:16 (antibody, V domains shown) VH: EVQLVESGGGLVKPGGSLRLSCAASGFTFSSYSMSWVRQAPGKGLEWVSSISSSSSYIYYADSVKGRFTISRDNAKNSLYLQMNSLRAEDTAVYYCARGGDAYNYYYFDYWGQGTLVTVSS VL: DIVMTQTPLSLSVTPGQPASISCKSSQSVFFRSNNKNILAWYLQKPGQPPQLLIYWASSRESGVPDRFSGSGSGTDFTLKISRVEAEDVGVYYCQQYFGSPFTFGPGTKVDIK",–,–,–,–,–,–,can bind,not,not,limited activity,strong synergistic effect
